Measurements taken from PubChem BioAssay (NCI).
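Each compound was tested at five concentrations against cells in 96-well plates for 48 hours. TGI: total growth inhibition.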

Columns and labels:
Experiment in all cases: DTP human tumour cell line panel, 48 h
MDA-MB-435 = tested on: MDA-MB-435
A498 renal = tested on: A498 renal
786-0 renal = tested on: 786-0 renal
HOP-92 NSCLC = tested on: HOP-92 NSCLC
MOLT-4 leukemia = tested on: MOLT-4 leukemia
SK-MEL-2 melanoma = tested on: SK-MEL-2 melanoma
U251 CNS = tested on: U251 CNS
HT29 colon = tested on: HT29 colon
NCI-H522 lung = tested on: NCI-H522 lung
HL-60(TB) leukemia = tested on: HL-60(TB) leukemia
UACC-257 melanoma = tested on: UACC-257 melanoma
SF-295 CNS = tested on: SF-295 CNS
K-562 leukemia = tested on: K-562 leukemia
SR leukemia = tested on: SR leukemia
HCC-2998 colon = tested on: HCC-2998 colon
PC-3 prostate = tested on: PC-3 prostate
SK-MEL-28 melanoma = tested on: SK-MEL-28 melanoma
SK-OV-3 ovarian = tested on: SK-OV-3 ovarian
UO-31 renal = tested on: UO-31 renal
MALME-3M melanoma = tested on: MALME-3M melanoma
IGROV1 ovarian = tested on: IGROV1 ovarian
NCI-H460 lung = tested on: NCI-H460 lung
OVCAR-3 ovarian = tested on: OVCAR-3 ovarian
MDA-N = tested on: MDA-N
KM12 colon = tested on: KM12 colon
HCT-116 colon = tested on: HCT-116 colon
SNB-19 CNS = tested on: SNB-19 CNS
TK-10 renal = tested on: TK-10 renal
OVCAR-8 ovarian = tested on: OVCAR-8 ovarian
DU-145 prostate = tested on: DU-145 prostate
SN12C renal = tested on: SN12C renal
A549 NSCLC = tested on: A549 NSCLC
HOP-62 NSCLC = tested on: HOP-62 NSCLC
SF-539 CNS = tested on: SF-539 CNS
BT-549 breast = tested on: BT-549 breast
HCT-15 colon = tested on: HCT-15 colon
NCI-H23 lung = tested on: NCI-H23 lung
NCI-H226 lung = tested on: NCI-H226 lung
NCI/ADR-RES ovarian = tested on: NCI/ADR-RES ovarian
RPMI-8226 leukemia = tested on: RPMI-8226 leukemia
HS 578T breast = tested on: HS 578T breast
SW-620 colon = tested on: SW-620 colon
MDA-MB-231 breast = tested on: MDA-MB-231 breast
SF-268 CNS = tested on: SF-268 CNS
COLO 205 colon = tested on: COLO 205 colon
CAKI-1 renal = tested on: CAKI-1 renal
LOX IMVI melanoma = tested on: LOX IMVI melanoma
OVCAR-5 ovarian = tested on: OVCAR-5 ovarian
UACC-62 melanoma = tested on: UACC-62 melanoma
CCRF-CEM leukemia = tested on: CCRF-CEM leukemia
SK-MEL-5 melanoma = tested on: SK-MEL-5 melanoma
M14 melanoma = tested on: M14 melanoma
RXF 393 renal = tested on: RXF 393 renal
ACHN renal = tested on: ACHN renal
SNB-75 CNS = tested on: SNB-75 CNS
MCF7 breast = tested on: MCF7 breast
EKVX NSCLC = tested on: EKVX NSCLC
OVCAR-4 ovarian = tested on: OVCAR-4 ovarian
T-47D breast = tested on: T-47D breast

C=C1C(=O)CC2C(=O)C(C)(O)CC/C=C(\C)C(=O)CC12 (stereo not drawn)
TGI (MDA-MB-435): > 55.7 µM | TGI (A498 renal): > 100 µM | TGI (786-0 renal): 35.6 µM | TGI (HOP-92 NSCLC): > 57.3 µM | TGI (MOLT-4 leukemia): 17.1 µM | TGI (SK-MEL-2 melanoma): > 82.9 µM | TGI (U251 CNS): > 100 µM | TGI (HT29 colon): > 64.9 µM | TGI (NCI-H522 lung): 17.1 µM | TGI (HL-60(TB) leukemia): 8.87 µM | TGI (UACC-257 melanoma): 55.5 µM | TGI (SF-295 CNS): > 100 µM | TGI (K-562 leukemia): > 44.1 µM | TGI (SR leukemia): > 55.1 µM | TGI (HCC-2998 colon): > 100 µM | TGI (PC-3 prostate): 83 µM | TGI (SK-MEL-28 melanoma): > 55.6 µM | TGI (SK-OV-3 ovarian): > 100 µM | TGI (UO-31 renal): 21.1 µM | TGI (MALME-3M melanoma): 27.1 µM | TGI (IGROV1 ovarian): 37.5 µM | TGI (NCI-H460 lung): > 100 µM | TGI (OVCAR-3 ovarian): 59 µM | TGI (MDA-N): 37.1 µM | TGI (KM12 colon): > 100 µM | TGI (HCT-116 colon): 23 µM | TGI (SNB-19 CNS): > 100 µM | TGI (TK-10 renal): 34.4 µM | TGI (OVCAR-8 ovarian): > 63.6 µM | TGI (DU-145 prostate): 42.2 µM | TGI (SN12C renal): 29.5 µM | TGI (A549 NSCLC): > 100 µM | TGI (HOP-62 NSCLC): > 100 µM | TGI (SF-539 CNS): 59.8 µM | TGI (BT-549 breast): 35.5 µM | TGI (HCT-15 colon): 37.7 µM | TGI (NCI-H23 lung): 45.7 µM | TGI (NCI-H226 lung): > 77.3 µM | TGI (NCI/ADR-RES ovarian): > 100 µM | TGI (RPMI-8226 leukemia): 82.9 µM | TGI (HS 578T breast): 43.5 µM | TGI (SW-620 colon): > 34.2 µM | TGI (MDA-MB-231 breast): 74.7 µM | TGI (SF-268 CNS): > 76.1 µM | TGI (COLO 205 colon): 27.4 µM | TGI (CAKI-1 renal): 7.98 µM | TGI (LOX IMVI melanoma): 35.4 µM | TGI (OVCAR-5 ovarian): 47.2 µM | TGI (UACC-62 melanoma): 91.8 µM | TGI (CCRF-CEM leukemia): 23.5 µM | TGI (SK-MEL-5 melanoma): 35.6 µM | TGI (M14 melanoma): 31 µM | TGI (RXF 393 renal): 40.3 µM | TGI (ACHN renal): 27.3 µM | TGI (SNB-75 CNS): > 100 µM | TGI (MCF7 breast): 36.6 µM | TGI (EKVX NSCLC): 53.9 µM | TGI (OVCAR-4 ovarian): > 58.2 µM

CN(C)c1ccc(C2SCC(=O)N2NS(=O)(=O)c2cccc(C(=O)O)c2)cc1 (stereo not drawn)
TGI (MDA-MB-435): > 100 µM | TGI (786-0 renal): 31 µM | TGI (HOP-92 NSCLC): > 100 µM | TGI (MOLT-4 leukemia): > 100 µM | TGI (SK-MEL-2 melanoma): > 100 µM | TGI (U251 CNS): > 100 µM | TGI (HT29 colon): > 100 µM | TGI (NCI-H522 lung): > 100 µM | TGI (HL-60(TB) leukemia): > 100 µM | TGI (UACC-257 melanoma): > 100 µM | TGI (SF-295 CNS): > 100 µM | TGI (K-562 leukemia): > 100 µM | TGI (HCC-2998 colon): > 100 µM | TGI (PC-3 prostate): > 100 µM | TGI (SK-MEL-28 melanoma): > 100 µM | TGI (SK-OV-3 ovarian): > 100 µM | TGI (UO-31 renal): > 100 µM | TGI (MALME-3M melanoma): > 100 µM | TGI (IGROV1 ovarian): > 100 µM | TGI (NCI-H460 lung): > 100 µM | TGI (OVCAR-3 ovarian): > 100 µM | TGI (T-47D breast): > 100 µM | TGI (MDA-N): > 100 µM | TGI (KM12 colon): > 100 µM | TGI (HCT-116 colon): > 100 µM | TGI (SNB-19 CNS): > 100 µM | TGI (TK-10 renal): > 100 µM | TGI (OVCAR-8 ovarian): 32.6 µM | TGI (DU-145 prostate): > 100 µM | TGI (SN12C renal): > 100 µM | TGI (A549 NSCLC): > 100 µM | TGI (HOP-62 NSCLC): > 100 µM | TGI (SF-539 CNS): > 100 µM | TGI (BT-549 breast): > 100 µM | TGI (HCT-15 colon): > 100 µM | TGI (NCI-H23 lung): > 100 µM | TGI (NCI-H226 lung): > 100 µM | TGI (RPMI-8226 leukemia): > 100 µM | TGI (HS 578T breast): > 100 µM | TGI (SW-620 colon): > 100 µM | TGI (MDA-MB-231 breast): > 100 µM | TGI (SF-268 CNS): > 100 µM | TGI (COLO 205 colon): > 100 µM | TGI (CAKI-1 renal): > 100 µM | TGI (LOX IMVI melanoma): > 100 µM | TGI (OVCAR-5 ovarian): > 100 µM | TGI (UACC-62 melanoma): > 100 µM | TGI (CCRF-CEM leukemia): > 100 µM | TGI (SK-MEL-5 melanoma): > 100 µM | TGI (M14 melanoma): > 100 µM | TGI (RXF 393 renal): > 100 µM | TGI (ACHN renal): > 100 µM | TGI (SNB-75 CNS): > 100 µM | TGI (MCF7 breast): > 100 µM | TGI (EKVX NSCLC): > 100 µM
